Experimental data: patent US4180436A, “Antibacterial compounds and process for production thereof” (Kyowa Hakko Kogyo Co., Ltd., priority 1977, dated 1979)
Converted amounts (≈) assume the structure as drawn. “Also recorded” adds a separate entry of the source. Values belong to the molecule of their own block, whether it stands above or below them.

Assays:
[1] = tested on: Alternaria solani IFO 5924; test: antibacterial activity by disc method; format: cell-based; conditions: IFO5924, pH: no adjustment
Excerpt: (§1) The antibacterial activity of the compound S551-II against various microorganisms by disc method (pH: no adjustment) is shown in the following Table 1.

[2] = tested on: Aspergillus niger ATCC 6275; test: antibacterial activity by disc method; format: cell-based; conditions: ATCC6275, pH: no adjustment
Excerpt: as §1

[3] = tested on: Aspergillus niger IAM 2026; test: antibacterial activity by disc method; format: cell-based; conditions: IAM2026, pH: no adjustment
Excerpt: as §1

[4] = tested on: Aspergillus oryzae NRRL 692; test: antibacterial activity by disc method; format: cell-based; conditions: NRRL692, pH: no adjustment
Excerpt: as §1

[5] = tested on: Bacillus subtilis IAM 1026; test: antibacterial activity by disc method; format: cell-based; conditions: IAM1026, pH: no adjustment
Excerpt: as §1

Bacillus subtilis NA 64 = test: antibacterial activity by disc method; format: cell-based; conditions: NA64, pH: no adjustment
Excerpt: as §1

[6] = tested on: Bacillus subtilis PCI 219; test: antibacterial activity by disc method; format: cell-based; conditions: PCI219, pH: no adjustment
Excerpt: as §1

[7] = tested on: Candida albicans IAM 4888; test: antibacterial activity by disc method; format: cell-based; conditions: IAM4888, pH: no adjustment
Excerpt: as §1

[8] = tested on: Chaetomium globosum ATCC 6025; test: antibacterial activity by disc method; format: cell-based; conditions: ATCC6025, pH: no adjustment
Excerpt: as §1

[9] = tested on: Cladosporium herbarum Link Fr IAM 5059; test: antibacterial activity by disc method; format: cell-based; conditions: IAM5059, pH: no adjustment
Excerpt: as §1

Diplococcus pneumoniae = test: antibacterial activity by disc method; format: cell-based; conditions: Streptococcus pneumoniae, pH: no adjustment
Excerpt: as §1

[10] = tested on: Dusariium moniliforme IAM 5062; test: antibacterial activity by disc method; format: cell-based; conditions: pH: no adjustment
Excerpt: as §1

[11] = tested on: Escherichia coli ATCC 3655; test: antibacterial activity by disc method; format: cell-based; conditions: ATCC3655, pH: no adjustment
Excerpt: as §1

[12] = tested on: Escherichia coli IAM 1268; test: antibacterial activity by disc method; format: cell-based; conditions: IAM1268, pH: no adjustment
Excerpt: as §1

Irycoderma T-1 ATCC 9645 = test: antibacterial activity by disc method; format: cell-based
Excerpt: as §1

[13] = tested on: Klebsiella pneumoniae 348; test: antibacterial activity by disc method; format: cell-based; conditions: pH: no adjustment
Excerpt: as §1

[14] = tested on: Mucor spinescens IAM 6071; test: antibacterial activity by disc method; format: cell-based; conditions: IAM6071, pH: no adjustment
Excerpt: as §1

[15] = tested on: Myrothecium verrucaria IAM 5063; test: antibacterial activity by disc method; format: cell-based; conditions: Albifimbria verrucaria, IAM5063, pH: no adjustment
Excerpt: as §1

[16] = tested on: Penicillium chrysogenum IAM 7142; test: antibacterial activity by disc method; format: cell-based; conditions: IAM7142, pH: no adjustment
Excerpt: as §1

[17] = tested on: Penicillium chrysogenum Q 176; test: antibacterial activity by disc method; format: cell-based; conditions: Q176, pH: no adjustment
Excerpt: as §1

[18] = tested on: Proteus vulgaris HX19 IAM 1025; test: antibacterial activity by disc method; format: cell-based; conditions: IAM1025, pH: no adjustment
Excerpt: as §1

[19] = tested on: Pseudomonas aeruginosa IAM 1156; test: antibacterial activity by disc method; format: cell-based; conditions: IAM1156, pH: no adjustment
Excerpt: as §1

[20] = tested on: Pseudomonas fluorescens ATCC 27; test: antibacterial activity by disc method; format: cell-based; conditions: ATCC27, pH: no adjustment
Excerpt: as §1

[21] = tested on: Saccharomyces cerevisiae IAM 4485; test: antibacterial activity by disc method; format: cell-based; conditions: IAM4485, pH: no adjustment
Excerpt: as §1

Saccharomyces rouxii M-9 = test: antibacterial activity by disc method; format: cell-based; conditions: Zygosaccharomyces rouxii, M9, pH: no adjustment
Excerpt: as §1

Salmonella enteritidis = test: antibacterial activity by disc method; format: cell-based; conditions: Salmonella enterica, pH: no adjustment
Excerpt: as §1

Sarcina lutea IAM 1099 = test: antibacterial activity by disc method; format: cell-based; conditions: Micrococcus luteus, IAM1099, pH: no adjustment
Excerpt: as §1

[22] = tested on: Serratia marcescens IAM 1022; test: antibacterial activity by disc method; format: cell-based; conditions: IAM1022, pH: no adjustment
Excerpt: as §1

Shigella sonnei E23 = test: antibacterial activity by disc method; format: cell-based
Excerpt: as §1

[23] = tested on: Staphylococcus aureus FAD 209P; test: antibacterial activity by disc method; format: cell-based; conditions: pH: no adjustment
Excerpt: as §1

[24] = tested on: Trycophyton mentagrophytes IAM 5064; test: antibacterial activity by disc method; format: cell-based; conditions: pH: no adjustment
Excerpt: as §1

gypseum IFO 5948 = test: antibacterial activity by disc method; format: cell-based; conditions: pH: no adjustment
Excerpt: as §1

[25] = tested on: Bacilus subtilis ATCC 10707; test: antibacterial activity by agar dilution method; format: cell-based; conditions: pH 7.0
Excerpt: (§2) The antibacterial activity of the compound S551-II-A against various microorganism by agar dilution method (pH 7.0) is shown in Table 2.

[26] = tested on: Escherichia coli ATCC 3655; test: antibacterial activity by agar dilution method; format: cell-based; conditions: ATCC3655, pH 7.0
Excerpt: as §2

[27] = tested on: Klebsiella pneumoniae ATCC 10031; test: antibacterial activity by agar dilution method; format: cell-based; conditions: ATCC10031, pH 7.0
Excerpt: as §2

[28] = tested on: Proteus vulgaris ATCC 6897; test: antibacterial activity by agar dilution method; format: cell-based; conditions: ATCC6897, pH 7.0
Excerpt: as §2

[29] = tested on: Staphylococcus aureus ATCC 6538P; test: antibacterial activity by agar dilution method; format: cell-based; conditions: ATCC6538P, pH 7.0
Excerpt: as §2

Solubilities = format: physicochemical; conditions: solvents named in the value

Compound: CC(=O)OC1CC(/C=C/C(=O)OC2=C(O)CCC2=O)=CN1 (centres unmarked) [Compound S551-II]
- MIC [1]: 8 µg/mL (≈ 27.3 µM)
- MIC [2]: 1000 µg/mL (≈ 3410 µM)
- MIC [3]: 250 µg/mL (≈ 852 µM)
- MIC [4]: 62.5 µg/mL (≈ 213 µM)
- MIC [5]: 31.2 µg/mL (≈ 106 µM)
- MIC (Bacillus subtilis NA 64): 62.5 µg/mL (≈ 213 µM)
- MIC [6]: 62.5 µg/mL (≈ 213 µM)
- MIC [7]: > 1000 µg/mL
- MIC [8]: 500 µg/mL (≈ 1700 µM)
- MIC [9]: 31.2 µg/mL (≈ 106 µM)
- MIC (Diplococcus pneumoniae): 1000 µg/mL (≈ 3410 µM)
- MIC [10]: 125 µg/mL (≈ 426 µM)
- MIC [11]: 500 µg/mL (≈ 1700 µM)
- MIC [12]: 1000 µg/mL (≈ 3410 µM)
- MIC (Irycoderma T-1 ATCC 9645): 16 µg/mL (≈ 54.6 µM)
- MIC [13]: > 1000 µg/mL
- MIC [14]: 500 µg/mL (≈ 1700 µM)
- MIC [15]: 125 µg/mL (≈ 426 µM)
- MIC [16]: 125 µg/mL (≈ 426 µM)
- MIC [17]: 62.5 µg/mL (≈ 213 µM)
- MIC [18]: > 1000 µg/mL
- MIC [19]: > 1000 µg/mL
- MIC [20]: > 1000 µg/mL
- MIC [21]: 1000 µg/mL (≈ 3410 µM)
- MIC (Saccharomyces rouxii M-9): 100 µg/mL (≈ 341 µM)
- MIC (Salmonella enteritidis): > 1000 µg/mL
- MIC (Sarcina lutea IAM 1099): 125 µg/mL (≈ 426 µM)
- MIC [22]: > 1000 µg/mL
- MIC (Shigella sonnei E23): > 100 µg/mL
- MIC [23]: 62.5 µg/mL (≈ 213 µM)
- MIC [24]: 4 µg/mL (≈ 13.6 µM)
- MIC (gypseum IFO 5948): 125 µg/mL (≈ 426 µM)

- MIC [25]: 200 µg/mL (≈ 858 µM)
- MIC [26]: 500 µg/mL (≈ 2140 µM)
- MIC [27]: 200 µg/mL (≈ 858 µM)
- MIC [28]: 25 µg/mL (≈ 107 µM)
- MIC [29]: 200 µg/mL (≈ 858 µM)
Compound: O=C(/C=C/c1cc[nH]c1)OC1=C(O)CCC1=O [Compound S551-II-A]
- Solubilities (Solubilities): soluble in acetone, dimethylsulfoxide and alkaline solution; also recorded: slightly soluble in methanol; also recorded: insoluble in benzene, chloroform ethylether and hexane
